Measured values from publication PMC12260535, “A novel thiazole-sulfonamide hybrid molecule as a promising dual tubulin/carbonic anhydrase IX inhibitor with anticancer activity” (Frontiers in Chemistry, 2025).
Where two headings read alike, the source gives them in different places.

Columns and labels:
[1] = biological target: CA IX; conditions: cited from earlier work
[2] = system: tubulin; conditions: read-out: tubulin polymerization IC50, cited from earlier work
[3] = system: p53; assay: p53 ELISA in HT-29 cells; assay type: cell-based, human
[4] = system: 786-O (renal carcinoma) cells; assay: MTT antiproliferative assay, 786-O; assay type: cell-based; conditions: Homo sapiens, read-out: IC50 786-O
Protocol: (§1) All cell lines were obtained from the Vacsera Cell Culture Library, Tissue Culture Unit, Cairo, Egypt, with ATCC certification. The assay enabled the detection of membrane-compromised cells based on the fluorescence intensity of DNA binding. Check Appendix A for additional information.
(§2) Cells were cultured in their respective recommended media supplemented with 10% fetal bovine serum and 1% penicillin-streptomycin and maintained at 37 °C in a humidified atmosphere containing 5% CO₂. Cell viability was assessed using the MTT assay, following the protocol provided with the In Vitro Toxicology Assay Kit, MTT Based (Sigma-Aldrich, TOX-1). Briefly, cells were seeded in 96-well plates at a density of 5 × 10³ cells/well and allowed to adhere overnight. […] Subsequently, 10 µL of reconstituted MTT solution (5 mg/mL in serum-free, phenol red-free medium) was added to each well and incubated for 3 h at 37 °C. The resulting formazan crystals were dissolved by adding 100 µL of the MTT Solubilization Solution, and the plates were gently shaken to ensure complete solubilization. Absorbance was recorded at 570 nm with a reference wavelength of 690 nm using a microplate reader. Cell viability was expressed as a percentage relative to untreated control cells. All experiments were conducted in triplicate, and IC₅₀ values were determined using linear regression analysis.

[5] = system: Bax; assay: Bax ELISA in HT-29 cells; assay type: cell-based, human
Protocol: Changes in Bax levels were quantified in treated cell lysates to assess the apoptotic response. Comprehensive assay details are available in Appendix A (Supplementary Material).
This sandwich-based immunoassay utilizes a monoclonal antibody specific for human BAX-α to capture and quantify the protein in cell lysates. Cells were lysed using the provided Cell Lysis Buffer, freshly supplemented with phenylmethylsulfonyl fluoride (PMSF, 1 mM) and protease inhibitor cocktail (PIC, 0.5 µL/mL). Lysates were incubated on ice, vortexed, and centrifuged at 16,000 rpm for 15 minutes at 4 °C. The supernatants were collected and diluted with the kit's Assay Buffer. A standard curve was generated using BAX-α standards with concentrations of 62.5, 125, 250, 500, 1000, and 2000 ng/mL. The corresponding net absorbance values (after subtracting the average blank OD of 0.023) were 0.110, 0.192, 0.338, 0.781, 1.443, and 2.496, respectively. Absorbance was measured at 450 nm with a reference wavelength of 570–590 nm. BAX concentrations in the samples were calculated using linear regression analysis based on the standard curve obtained. The assay provided a sensitive and quantitative measure of BAX modulation in response to compound 7.

[6] = system: A549 (lung carcinoma) cells; assay: MTT antiproliferative assay, A549; assay type: cell-based; conditions: Homo sapiens, read-out: IC50 A549
Protocol: (§3) . All cell lines were obtained from the Vacsera Cell Culture Library, Tissue Culture Unit, Cairo, Egypt, with ATCC certification. […] Check Appendix A for additional information.
as §2, with “. Cells” for “Cells”

[7] = biological target: CA I (Homo sapiens, UniProt P00915); assay: Carbonic anhydrase inhibitor screening kit (colorimetric), CA I
Chain of CA I (P00915 whole entry): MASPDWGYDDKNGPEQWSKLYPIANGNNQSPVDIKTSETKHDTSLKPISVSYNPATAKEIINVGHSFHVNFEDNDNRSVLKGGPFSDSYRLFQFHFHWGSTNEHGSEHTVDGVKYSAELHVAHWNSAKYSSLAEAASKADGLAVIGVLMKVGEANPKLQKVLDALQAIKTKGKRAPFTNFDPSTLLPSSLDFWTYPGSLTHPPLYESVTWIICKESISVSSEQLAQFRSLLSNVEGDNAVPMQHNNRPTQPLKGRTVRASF

[8] = system: Bcl-2; assay: Bcl-2 ELISA in HT-29 cells; assay type: cell-based, human
Protocol: Absorbance was measured at 450 nm to determine changes in Bcl-2 expression in response to treatment. A full description of the assay protocol is included in Appendix A (Supplementary Material).
The assay is based on a sandwich ELISA format, where human Bcl-2 is captured by a monoclonal antibody coated on a microwell plate and detected using a biotin-conjugated anti-Bcl-2 antibody followed by Streptavidin-HRP and TMB substrate. Cells were lysed using the supplied Lysis Buffer at a concentration of 5 × 10⁶ cells/mL and incubated for 1 hour at room temperature with gentle shaking. Lysates were clarified by centrifugation at 1000 × g for 15 minutes, and the supernatants were collected for immediate use or stored at –80 °C. For the assay, 20 µL of sample was added to wells along with 80 µL of Sample Diluent, followed by 50 µL of diluted biotin-conjugate. After a 2-hour incubation at room temperature, plates were washed and incubated with diluted Streptavidin-HRP for 1 hour. […] Absorbance was measured at 450 nm with optional correction between 610–650 nm. […] The corresponding absorbance values ranged from approximately 0.121 to 2.461, with a background (blank) absorbance of 0.023. Net absorbance values were calculated by subtracting the blank from each standard, and the resulting data were used to construct a calibration curve. […]

[9] = biological target: CA XII (Homo sapiens, UniProt O43570); assay: Carbonic anhydrase inhibitor screening kit (colorimetric), CA XII
Chain of CA XII (O43570 25-354): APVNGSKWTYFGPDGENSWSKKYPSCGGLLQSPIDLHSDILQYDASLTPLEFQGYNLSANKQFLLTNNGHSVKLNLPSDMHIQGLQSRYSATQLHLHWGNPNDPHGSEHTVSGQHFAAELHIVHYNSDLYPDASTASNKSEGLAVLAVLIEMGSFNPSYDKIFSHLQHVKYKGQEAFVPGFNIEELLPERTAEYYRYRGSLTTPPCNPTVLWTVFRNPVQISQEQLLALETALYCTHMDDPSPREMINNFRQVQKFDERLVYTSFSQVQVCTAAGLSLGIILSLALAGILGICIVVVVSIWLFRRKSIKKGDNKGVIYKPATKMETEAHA

[10] = biological target: CA II (Homo sapiens, UniProt P00918); assay: Carbonic anhydrase inhibitor screening kit (colorimetric), CA II
[11] = biological target: CA IX (Homo sapiens, UniProt Q16790); assay: Carbonic anhydrase inhibitor screening kit (colorimetric), CA IX
[12] = system: caspase-9; assay: Caspase-9 ELISA in HT-29 cells; assay type: cell-based, human
Description: This assay employs a sandwich ELISA format, utilizing a specific capture antibody and an HRP-conjugated detection system, with absorbance measured at 450 nm. A detailed methodology is provided in Appendix A (Supplementary Material).
This solid-phase sandwich ELISA employs a monoclonal antibody pre-coated on a 96-well microplate to capture caspase-9 from samples. A rabbit polyclonal detection antibody specific to human caspase-9 is subsequently added, followed by an HRP-conjugated anti-rabbit IgG and TMB substrate for colorimetric detection. The intensity of the yellow product formed after stopping the reaction with phosphoric acid is proportional to the amount of caspase-9 present and is measured at 450 nm. […] Lysates were centrifuged at 1,000 × g for 15 minutes, and the clear supernatants were collected and either analyzed immediately or stored at –80 °C. […] Standard concentrations of 1.6, 3.1, 6.3, 12.5, 25, 50, and 100 ng/mL yielded OD values of 0.140, 0.167, 0.213, 0.239, 0.501, 0.799, and 1.639 respectively, with a blank reading of 0.042. Net OD values were calculated by subtracting the blank absorbance, and the standard curve was constructed accordingly. The concentration of caspase-9 in each sample was determined using linear regression analysis, and final values were adjusted by the dilution factor.

[13] = system: caspase-3; assay: Active caspase-3 ELISA in HT-29 cells; assay type: cell-based, human
Description: This sandwich ELISA detects caspase-3 cleaved at Asp175/Ser176, enabling sensitive colorimetric measurement at 450 nm. Additional procedural details are provided in Appendix A (Supplementary Material).
This assay is based on a solid-phase sandwich ELISA principle, where an anti-human caspase-3 monoclonal antibody is pre-coated onto a microplate. Cell lysates or standards are captured by this antibody, followed by the addition of a rabbit polyclonal detection antibody specific for active caspase-3 cleaved at Asp175/Ser176. Detection is then performed using HRP-conjugated anti-rabbit IgG and TMB substrate. Cell lysates were prepared in protease inhibitor-supplemented cell extraction buffer and clarified by centrifugation. Samples were diluted in Standard Diluent Buffer and added to the wells along with a standard curve of human active caspase-3. The standard concentrations included 39, 78, 156, 313, 625, 1250, and 2500 ng/mL, which yielded optical density (OD) readings ranging from 0.192 to 2.733. A blank reading of 0.018 was subtracted from each standard OD, and the resulting data were used to generate a standard curve. […] After color development, the reaction was stopped with acid, and absorbance was read at 450 nm. The concentration of active caspase-3 in treated samples was determined using linear regression analysis of the standard curve. […]

[14] = system: MCF-7 (breast adenocarcinoma) cells; assay: MTT antiproliferative assay, MCF-7; assay type: cell-based; conditions: Homo sapiens, read-out: IC50 MCF-7
Protocol: as §3
as §2, with “. Cells” for “Cells”

[15] = system: WI-38 normal lung fibroblast cells; assay: MTT cytotoxicity assay, normal WI-38 fibroblasts; assay type: cell-based; conditions: Homo sapiens, 48 h, WI-38 normal fibroblasts
Protocol: as §1, §2

[16] = system: HT-29 (colon adenocarcinoma) cells; assay: MTT antiproliferative assay, HT-29; assay type: cell-based; conditions: Homo sapiens, 48 h, HT-29 colorectal cancer cells
Protocol: as §1, §2

In the case of `COc1cc(/C=C/C(=O)c2nnn(-c3ccc(S(N)(=O)=O)cc3)c2C)cc(OC)c1OC` [compound V], the Ki ([1]; ref Abdelhakeem et al., 2024) is listed as 30 nM.

For `COc1ccc2[nH]cc(/C=N/Nc3nc(-c4cccc(Br)c4)cs3)c2c1` [Compound VII], the IC50 ([2]; ref Wang et al., 2024) is given as 1680 nM.

With `Cc1[nH]c(=S)sc1C(=O)/C=C/c1ccc(S(N)(=O)=O)cc1` [Compound 7, (E)-4-(3-(4-methyl-2-thioxo-2,3-dihydrothiazol-5-yl)-3-oxoprop-1-en-1-yl)benzenesulfonamide] the “P53 Conc” value ([3]; ELISA, DMSO control 150.66 ± 3.33) was 1,224.00 ± 6.67 pg/mL, the “P53 Fold change” value ([3]; versus DMSO control) was 8.12 and the IC50 ([4]; 786-0, 48 h) was 1560 nM. For the same compound, the “Bax Conc” value ([5]; ELISA, DMSO control 68.50 ± 1.67) was 392.25 ± 14.58 pg/mL, the “Bax Fold change” value ([5]; versus DMSO control) was 5.73 and the IC50 ([6]; A549, 48 h) was 6820 nM. For the same compound, the IC50 [7] was 1900 ± 250 nM, the “Bcl-2 Conc” value ([8]; ELISA, DMSO control 19.25 ± 0.43) was 6.212 ± 0.093 pg/mL and the “Bcl-2 Fold change” value ([8]; versus DMSO control) was 0.323. For the same compound, the IC50 [9] was 114 ± 12 nM, the IC50 [10] was 381 ± 45 nM and the IC50 [11] was 21 ± 4 nM. For the same compound, the “Caspase-9 Conc” value ([12]; ELISA, DMSO control 5.09 ± 0.26) was 49.39 ± 1.13 ng/mL, the “Caspase-9 Fold change” value ([12]; versus DMSO control) was 9.70 and the “Caspase 3 Conc” value ([13]; ELISA, DMSO control 57.64 ± 1.36) was 511.27 ± 13.18 pg/mL. For the same compound, the “Caspase 3 Fold change” value ([13]; versus DMSO control) was 8.87 and the IC50 ([14]; MCF7, 48 h) was 3630 nM.

In the case of `CCOc1ccc(-c2sc(N)nc2-c2ccc(OC)c3ccccc23)cc1` [compound VI], the IC50 ([2]; ref Wang et al., 2021) is given as 3300 nM.

In the case of `COc1cc(-c2csc(NC(=O)CNc3ccc([N+](=O)[O-])cc3)n2)cc(OC)c1OC` [compound VIII], the IC50 ([2]; ref El-Abd et al., 2022) is given as 2000 nM.

In the case of `COc1ccc(/C=C\c2cc(OC)c(OC)c(OC)c2)cc1O` [CA-4, combretastatin A-4, reference compound], the IC50 ([4]; 786-0, MTT assay, 48 h, 786-O renal cancer cells) is reported as 3270 nM, the IC50 [15] is reported as 28100 nM and the IC50 [16] is reported as 2150 nM. The IC50 ([6]; MTT assay, 48 h, A549 lung cancer cells) was 440 nM and the IC50 ([14]; MCF7, MTT assay, 48 h, MCF-7 breast cancer cells) was 1820 nM.

For `NS(=O)(=O)c1ccc(NC(=O)Nc2cc3cc(Br)ccc3o2)cc1` [Compound II], the Ki ([1]; ref Shaldam et al., 2021) is listed as 5.5 nM.
